In US20230295182A1, “SPIRO DERIVATIVES OF ALPHA-D-GALACTOPYRANOSIDES” (Idorsia Pharmaceuticals Ltd, priority 2020, published 2023) one finds IC50 data, which are given here for 16 molecules.

In one assay the target is human Gal-3 (hGal-3) (Homo sapiens (Human), UniProt P17931). Briefly: Competitive binding assay: biotinylated hGal-3 to microplate-adsorbed asialofetuin (ASF). The following applies: Activity on hGal-3; binding to ASF-coated plates, 3 hours at 4° C.; mean values. How it is done:
Evaluation of Compound Inhibitory Activity (IC50)
The inhibitory activity of compounds is determined in competitive binding assays. This spectrophotometric assay measures the binding of biotinylated human Gal-3 (hGal-3) or human Gal-1 (hGal-1), respectively, to a microplate-adsorbed glycoprotein, asialofetuin (ASF) (Proc Natl Acad Sci USA. 2013 Mar. 26; 110(13):5052-7.). Alternatively, and preferably, a human Gal-1 version in which all six cysteines are substituted by serines may be used.
Briefly, compounds are serially diluted in DMSO (working dilutions). ASF-coated 384 well plates are supplemented with 22.8 μL/well of biotinylated hGal-3 or hGal-1 in assay buffer (i.e. 300-1000 ng/mL biotinylated hGal-3 or hGal-1) to which 1.2 µL of compound working dilutions are added and mixed.
Plates are incubated for 3 hours at 4° C., then washed with cold assay buffer (3×50 uL), incubated for 1 hour with 25 μL/well of a streptavidin-peroxidase solution (diluted in assay buffer to 80 ng/mL) at 4° C., followed by further washing steps with assay buffer (3×50 uL). Finally, 25 µL/well of ABTS substrate is added.
The calculated IC50 values may fluctuate depending on the daily assay performance. Fluctuations of this kind are known to those skilled in the art. IC50 values from several measurements are given as mean values.

The next assay has as its target human Gal-1 (hGal-1) (Homo sapiens, UniProt P09382). Briefly: Competitive binding assay: biotinylated hGal-1 to microplate-adsorbed asialofetuin (ASF). The following applies: Activities on hGal-1; binding to ASF-coated plates, 3 hours at 4° C.; mean values; read-out: Gal-1 IC50. How it is done:
Evaluation of Compound Inhibitory Activity (IC50) The inhibitory activity of compounds is determined in competitive binding assays. […] Alternatively, and preferably, a human Gal-1 version in which all six cysteines are substituted by serines may be used. Briefly, compounds are serially diluted in DMSO (working dilutions). […] Plates are incubated for 3 hours at 4° C., then washed with cold assay buffer (3×50 uL), incubated for 1 hour with 25 μL/well of a streptavidin-peroxidase solution (diluted in assay buffer to 80 ng/mL) at 4° C., followed by further washing steps with assay buffer (3×50 uL). Finally, 25 µL/well of ABTS substrate is added. […] The calculated IC50 values may fluctuate depending on the daily assay performance. Fluctuations of this kind are known to those skilled in the art. IC50 values from several measurements are given as mean values.

Molecules are shown by their SMILES.

Sequence of human Gal-3 (hGal-3) (P17931 whole entry): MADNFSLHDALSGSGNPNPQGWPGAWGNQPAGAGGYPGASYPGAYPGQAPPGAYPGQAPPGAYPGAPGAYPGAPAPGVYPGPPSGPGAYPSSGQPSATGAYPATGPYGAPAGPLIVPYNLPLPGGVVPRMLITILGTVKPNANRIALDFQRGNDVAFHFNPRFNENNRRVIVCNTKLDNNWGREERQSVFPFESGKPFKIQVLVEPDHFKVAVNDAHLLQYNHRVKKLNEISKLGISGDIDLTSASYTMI
Sequence of human Gal-1 (hGal-1) (P09382 2-135 limits assumed): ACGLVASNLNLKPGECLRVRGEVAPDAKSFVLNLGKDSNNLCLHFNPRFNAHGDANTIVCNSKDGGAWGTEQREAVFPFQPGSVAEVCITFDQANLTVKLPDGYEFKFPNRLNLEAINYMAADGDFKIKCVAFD

For `CO[C@@H]1[C@@H](n2cc(-c3ccc(C)c(F)c3F)nn2)[C@@H](O)[C@@H](CO)O[C@@H]1CC1=NO[C@]2(CC[C@@H](C#N)CC2)C1` [Example 1.56, (5s,8S)-3-(((2R,3R,4S,5R,6R)-4-(4-(2,3-difluoro-4-methylphenyl)-1H-1,2,3-triazol-1-yl)-5-hydroxy-6-(hydroxymethyl)-3-methoxytetrahydro-2H-pyran-2-yl)methyl)-1-oxa-2-azaspiro[4.5]dec-2-ene-8-carbonitrile], the IC50 at human Gal-3 (hGal-3) is 120 nM; on human Gal-1 (hGal-1) it was 3600 nM. In the case of `CO[C@@H]1[C@@H](n2cc(-c3ccc(C)c(F)c3F)nn2)[C@@H](O)[C@@H](CO)O[C@@H]1CC1=NOC2(CCC(F)(F)CC2)C1` [Example 1.26, (2R,3R,4S,5R,6R)-6-((8,8-difluoro-1-oxa-2-azaspiro[4.5]dec-2-en-3-yl)methyl)-4-(4-(2,3-difluoro-4-methylphenyl)-1H-1,2,3-triazol-1-yl)-2-(hydroxymethyl)-5-methoxytetrahydro-2H-pyran-3-ol], the IC50 was 110 nM at human Gal-3 (hGal-3) and 4000 nM on human Gal-1 (hGal-1).

In the case of `CCOC(=O)N[C@H]1CC[C@]2(CC1)CC(C[C@H]1O[C@H](CO)[C@H](O)[C@H](n3cc(-c4ccc(C)c(F)c4F)nn3)[C@H]1OC)=NO2` [Example 2.09, ethyl ((5r,8R)-3-(((2R,3R,4S,5R,6R)-4-(4-(2,3-difluoro-4-methylphenyl)-1H-1,2,3-triazol-1-yl)-5-hydroxy-6-(hydroxymethyl)-3-methoxytetrahydro-2H-pyran-2-yl)methyl)-1-oxa-2-azaspiro[4.5]dec-2-en-8-yl)carbamate], the values for the IC50 at human Gal-3 (hGal-3) and on human Gal-1 (hGal-1) were 17 nM and 640 nM, respectively. `CO[C@@H]1[C@@H](n2cc(-c3cc(F)c(F)c(F)c3)nn2)[C@@H](O)[C@@H](CO)O[C@@H]1CC1=NO[C@]2(CC[C@H](O)CC2)C1` [Example 2.03, (5r,8R)-3-(((2R,3R,4S,5R,6R)-5-hydroxy-6-(hydroxymethyl)-3-methoxy-4-(4-(3,4,5-trifluorophenyl)-1H-1,2,3-triazol-1-yl)tetrahydro-2H-pyran-2-yl)methyl)-1-oxa-2-azaspiro[4.5]dec-2-en-8-ol]: the results for the IC50 on human Gal-3 (hGal-3) and at human Gal-1 (hGal-1) were 190 nM and 2000 nM, respectively. Consider `CO[C@@H]1[C@@H](n2cc(-c3ccc(C)c(F)c3F)nn2)[C@@H](O)[C@@H](CO)O[C@@H]1CC1=NO[C@]2(CC[C@@H](C(C)(C)O)CC2)C1` [Example 1.63, (2R,3R,4S,5R,6R)-4-(4-(2,3-difluoro-4-methylphenyl)-1H-1,2,3-triazol-1-yl)-2-(hydroxymethyl)-6-(((5s,8S)-8-(2-hydroxypropan-2-yl)-1-oxa-2-azaspiro[4.5]dec-2-en-3-yl)methyl)-5-methoxytetrahydro-2H-pyran-3-ol], for which the half-maximal inhibitory concentration (IC50) on human Gal-3 (hGal-3) was determined as 180 nM; at human Gal-1 (hGal-1), 3400 nM. With `CO[C@@H]1[C@@H](n2cc(-c3ccc(C)c(F)c3F)nn2)[C@@H](O)[C@@H](CO)O[C@@H]1CN1CC2(CCCCC2)NC1=O` [Example 4.01, 3-(((2R,3R,4S,5R,6R)-4-(4-(2,3-difluoro-4-methylphenyl)-1H-1,2,3-triazol-1-yl)-5-hydroxy-6-(hydroxymethyl)-3-methoxytetrahydro-2H-pyran-2-yl)methyl)-1,3-diazaspiro[4.5]decan-2-one], the half-maximal inhibitory concentration (IC50) at human Gal-1 (hGal-1) was 1300 nM. On to `CO[C@@H]1[C@@H](n2cc(-c3ccc(C)c(F)c3F)nn2)[C@@H](O)[C@@H](CO)O[C@@H]1CC1=NOC2(CCCCC2)C1` [Example 1.14, (2R,3R,4S,5R,6R)-6-((1-oxa-2-azaspiro[4.5]dec-2-en-3-yl)methyl)-4-(4-(2,3-difluoro-4-methylphenyl)-1H-1,2,3-triazol-1-yl)-2-(hydroxymethyl)-5-methoxytetrahydro-2H-pyran-3-ol], for which the figures for the 50% inhibitory concentration (IC50) at human Gal-3 (hGal-3) and at human Gal-1 (hGal-1) were 78 nM and 2100 nM, respectively.

As for `CO[C@@H]1[C@@H](n2cc(-c3ccc(C)c(F)c3F)nn2)[C@@H](O)[C@@H](CO)O[C@@H]1CC1=NO[C@]2(CC[C@H](C#N)CC2)C1` [Example 1.57, (5r,8R)-3-(((2R,3R,4S,5R,6R)-4-(4-(2,3-difluoro-4-methylphenyl)-1H-1,2,3-triazol-1-yl)-5-hydroxy-6-(hydroxymethyl)-3-methoxytetrahydro-2H-pyran-2-yl)methyl)-1-oxa-2-azaspiro[4.5]dec-2-ene-8-carbonitrile], the results for the IC50 at human Gal-3 (hGal-3) and at human Gal-1 (hGal-1) were 41 nM and 530 nM, respectively. In the same order, the values of `CO[C@@H]1[C@@H](n2cc(-c3cc(F)c(Cl)c(F)c3)nn2)[C@@H](O)[C@@H](CO)O[C@@H]1CC1=NOC2(CCCCC2)C1` [Example 1.18, (2R,3R,4S,5R,6R)-6-((1-oxa-2-azaspiro[4.5]dec-2-en-3-yl)methyl)-4-(4-(4-chloro-3,5-difluorophenyl)-1H-1,2,3-triazol-1-yl)-2-(hydroxymethyl)-5-methoxytetrahydro-2H-pyran-3-ol] are 180 nM and 10300 nM.

With `CO[C@@H]1[C@@H](n2cc(-c3ccc(F)c(F)c3F)nn2)[C@@H](O)[C@@H](CO)O[C@@H]1CC1=NO[C@]2(CC[C@H](NC(C)=O)CC2)C1` [Example 2.08, N-((5r,8R)-3-(((2R,3R,4S,5R,6R)-5-hydroxy-6-(hydroxymethyl)-3-methoxy-4-(4-(2,3,4-trifluorophenyl)-1H-1,2,3-triazol-1-yl)tetrahydro-2H-pyran-2-yl)methyl)-1-oxa-2-azaspiro[4.5]dec-2-en-8-yl)acetamide], the results for the IC50 on human Gal-3 (hGal-3) and on human Gal-1 (hGal-1) were 52 nM and 310 nM, respectively.

In the case of `CO[C@@H]1[C@@H](n2cc(-c3ccc(F)c(F)c3F)nn2)[C@@H](O)[C@@H](CO)O[C@@H]1CC1=NOC2(CCOCC2)C1` [Example 1.35, (2R,3R,4S,5R,6R)-6-((1,8-dioxa-2-azaspiro[4.5]dec-2-en-3-yl)methyl)-2-(hydroxymethyl)-5-methoxy-4-(4-(2,3,4-trifluorophenyl)-1H-1,2,3-triazol-1-yl)tetrahydro-2H-pyran-3-ol], the IC50 amounted to 110 nM at human Gal-3 (hGal-3) and 1400 nM at human Gal-1 (hGal-1). Consider `CO[C@@H]1[C@@H](n2cc(-c3ccc(F)c(F)c3F)nn2)[C@@H](O)[C@@H](CO)O[C@@H]1CC1=NO[C@]2(CC[C@H](C#N)CC2)C1` [Example 1.59, (5r,8R)-3-(((2R,3R,4S,5R,6R)-5-hydroxy-6-(hydroxymethyl)-3-methoxy-4-(4-(2,3,4-trifluorophenyl)-1H-1,2,3-triazol-1-yl)tetrahydro-2H-pyran-2-yl)methyl)-1-oxa-2-azaspiro[4.5]dec-2-ene-8-carbonitrile], for which the values for the half-maximal inhibitory concentration (IC50) at human Gal-3 (hGal-3) and on human Gal-1 (hGal-1) were 130 nM and 220 nM, respectively. Regarding `CO[C@@H]1[C@@H](n2cc(-c3ccc(Cl)c(F)c3F)nn2)[C@@H](O)[C@@H](CO)O[C@@H]1CC1=NOC2(CCC(C(C)(C)O)CC2)C1` (stereo partly drawn) [Example 1.55, (2R,3R,4S,5R,6R)-4-(4-(4-chloro-2,3-difluorophenyl)-1H-1,2,3-triazol-1-yl)-2-(hydroxymethyl)-6-((8-(2-hydroxypropan-2-yl)-1-oxa-2-azaspiro[4.5]dec-2-en-3-yl)methyl)-5-methoxytetrahydro-2H-pyran-3-ol], the IC50 on human Gal-3 (hGal-3) is 400 nM; at human Gal-1 (hGal-1), 4400 nM. As to `CO[C@@H]1[C@@H](n2cc(-c3cc(F)c(F)c(F)c3)nn2)[C@@H](O)[C@@H](CO)O[C@@H]1CC1=NO[C@]2(CC[C@@H](NC3CC3)CC2)C1` [Example 2.23, (2R,3R,4S,5R,6R)-6-(((5s,8S)-8-(cyclopropylamino)-1-oxa-2-azaspiro[4.5]dec-2-en-3-yl)methyl)-2-(hydroxymethyl)-5-methoxy-4-(4-(3,4,5-trifluorophenyl)-1H-1,2,3-triazol-1-yl)tetrahydro-2H-pyran-3-ol], the values for the IC50 on human Gal-3 (hGal-3) and at human Gal-1 (hGal-1) were 590 nM and 1600 nM, respectively.

For `OC[C@H]1O[C@H](CC2=NOC3(CCCCC3)C2)[C@H](OCC(F)F)[C@@H](n2cc(-c3cc(F)c(F)c(F)c3)nn2)[C@H]1O` [Example 1.67, (2R,3R,4S,5R,6R)-6-((1-oxa-2-azaspiro[4.5]dec-2-en-3-yl)methyl)-5-(2,2-difluoroethoxy)-2-(hydroxymethyl)-4-(4-(3,4,5-trifluorophenyl)-1H-1,2,3-triazol-1-yl)tetrahydro-2H-pyran-3-ol], the IC50 on human Gal-1 (hGal-1) is 2900 nM.

Consider `CO[C@@H]1[C@@H](n2cc(-c3cc(F)c(F)c(F)c3)nn2)[C@@H](O)[C@@H](CO)O[C@@H]1CC1=NOC2(CCC(C)CC2)C1` (stereo partly drawn) [Example 1.30, (2R,3R,4S,5R,6R)-2-(hydroxymethyl)-5-methoxy-6-((8-methyl-1-oxa-2-azaspiro[4.5]dec-2-en-3-yl)methyl)-4-(4-(3,4,5-trifluorophenyl)-1H-1,2,3-triazol-1-yl)tetrahydro-2H-pyran-3-ol], for which the IC50 at human Gal-1 (hGal-1) came out at 3100 nM.

What is called IC50 is the concentration needed to halve the response being measured.
